Data taken from ChEMBL document CHEMBL4732033, “New prodrugs and analogs of the phenazine 5,10-dioxide natural products iodinin and myxin promote selective cytotoxicity towards human acute myeloid leukemia cells” (RSC Med Chem, 2021).
Values belong to the molecule of their own block, whether it stands above or below them.

What was measured:
NRK [1] = experiment: Cytotoxicity against rat NRK cells assessed as reduction in cell viability incubated for 24 hrs under 2% O2 condition by WST-1 assay; assay type: cell-based
NRK [2] = experiment: Cytotoxicity against rat NRK cells assessed as reduction in cell viability incubated for 24 hrs under 19% O2 condition by WST-1 assay; assay type: cell-based
H9c2 [3] = experiment: Cytotoxicity against rat H9c2 cells assessed as reduction in cell viability incubated for 24 hrs under 19% O2 condition by WST-1 assay; assay type: cell-based; conditions: H9c2, 24 h
MOLM-13 [4] = experiment: Cytotoxicity against human MOLM13 cells assessed as reduction in cell viability incubated for 24 hrs under 19% O2 condition by WST-1 assay; assay type: functional, cell-based; conditions: MOLM-13, 24 h
MOLM-13 [5] = experiment: Cytotoxicity against human MOLM13 cells assessed as reduction in cell viability incubated for 24 hrs under 2% O2 condition by WST-1 assay; assay type: functional, cell-based; conditions: MOLM-13, 24 h
[6] = Selectivity index, ratio of EC50 for rat NRK cells to EC50 for human MOLM13 cells under 19% O2 condition; assay type: toxicity; conditions: NRK cells versus MOLM13 cells, read-out: Ratio EC50
[7] = Selectivity index, ratio of EC50 for rat NRK cells to EC50 for human MOLM13 cells under 2% O2 condition; assay type: toxicity; conditions: NRK cells versus MOLM13 cells, read-out: Ratio EC50
[8] = Selectivity index, ratio of EC50 for rat NRK cells to EC50 for human MOLM13 cells; assay type: toxicity; conditions: NRK cells versus MOLM13 cells, read-out: Ratio EC50
[9] = Selectivity index, ratio of EC50 for rat H9c2 cells to EC50 for human MOLM13 cells; assay type: toxicity; conditions: H9c2 cells versus MOLM13 cells, read-out: Ratio EC50
[10] = Solubility of the compound in DMSO; assay type: physicochemical
NRK [11] = experiment: Cytotoxicity against rat NRK cells assessed as reduction in cell viability incubated for 24 hrs under 19% O2 condition by Hoechst 33342 staining based microscopic analysis
H9c2 [12] = experiment: Cytotoxicity against rat H9c2 cells assessed as reduction in cell viability incubated for 24 hrs under 19% O2 condition by Hoechst 33342 staining based microscopic analysis; conditions: H9c2, 24 h
NRK [13] = experiment: Cytotoxicity against rat NRK cells assessed as reduction in cell viability incubated for 24 hrs under 2% O2 condition by Hoechst 33342 staining based microscopic analysis

Compound: [O-][n+]1c2cccc(O)c2[n+]([O-])c2cccc(O)c21
EC50 (NRK [1]): > 50 µM
EC50 (NRK [2]): > 50 µM
EC50 (H9c2 [3]): > 50 µM

Compound: CCOC(=O)COc1cccc2c1[n+]([O-])c1cccc(O)c1[n+]2[O-]
EC50 (NRK [1]): 18 µM
EC50 (NRK [2]): 12 µM
EC50 (H9c2 [3]): 15 µM

Compound: COc1cccc2c1[n+]([O-])c1cccc(O)c1[n+]2[O-]
EC50 (NRK [1]): 76 µM
EC50 (NRK [2]): 77 µM
EC50 (H9c2 [3]): 46 µM

Compound: CCN(CC)C(=O)COc1cccc2c1[n+]([O-])c1cc(C)c(C)cc1[n+]2[O-]
EC50 (NRK [1]): 52 µM
EC50 (NRK [2]): 21 µM
EC50 (H9c2 [3]): 41 µM
EC50 (MOLM-13 [4]): 1.8 µM
EC50 (MOLM-13 [5]): 3.4 µM

Compound: CCOC(=O)COc1cccc2c1[n+]([O-])c1cc(Br)c(Br)cc1[n+]2[O-]
EC50 (NRK [1]): 9.7 µM
EC50 (NRK [2]): 10 µM
EC50 (H9c2 [3]): 3.3 µM
EC50 (MOLM-13 [4]): 2.4 µM
EC50 (MOLM-13 [5]): 1.6 µM

Compound: Cc1cc2c(cc1C)[n+]([O-])c1c(O)cccc1[n+]2[O-]
EC50 (NRK [1]): > 50 µM
EC50 (NRK [2]): > 50 µM
EC50 (H9c2 [3]): > 50 µM
EC50 (MOLM-13 [4]): 2.8 µM
EC50 (MOLM-13 [5]): 2.3 µM

Compound: CC(C)(C)OC(=O)COc1cccc2c1[n+]([O-])c1ccccc1[n+]2[O-]
EC50 (NRK [1]): 25 µM
EC50 (NRK [2]): 26 µM
EC50 (H9c2 [3]): 20 µM
EC50 (MOLM-13 [4]): 2.2 µM
EC50 (MOLM-13 [5]): 1.9 µM

Compound: CN1CCN(C(=O)Oc2cccc3c2[n+]([O-])c2cc(Cl)c(Cl)cc2[n+]3[O-])CC1
EC50 (NRK [1]): 15 µM
EC50 (NRK [2]): 11 µM
selectivity ratio [6]: > 30
EC50 (H9c2 [3]): 3.2 µM
EC50 (MOLM-13 [4]): 0.34 µM
EC50 (MOLM-13 [5]): 0.32 µM
selectivity ratio [7]: 45

Compound: Cc1cc2c(cc1C)[n+]([O-])c1c(OC(=O)N3CCCC3)cccc1[n+]2[O-]
EC50 (NRK [1]): 8.9 µM
EC50 (NRK [2]): 6.6 µM
EC50 (H9c2 [3]): 8.7 µM
EC50 (MOLM-13 [4]): 1.5 µM
EC50 (MOLM-13 [5]): 0.78 µM

Compound: CCOC(=O)Oc1cccc2c1[n+]([O-])c1cccc(OC(=O)OCC)c1[n+]2[O-]
EC50 (NRK [1]): > 25 µM
EC50 (NRK [2]): > 25 µM
EC50 (H9c2 [3]): > 25 µM
EC50 (MOLM-13 [4]): 6.1 µM
EC50 (MOLM-13 [5]): 4 µM

Compound: CN1CCN(C(=O)Oc2cccc3c2[n+]([O-])c2cccc(O)c2[n+]3[O-])CC1
EC50 (NRK [1]): 59 µM
EC50 (NRK [2]): 53 µM
EC50 (H9c2 [3]): 100 µM
EC50 (MOLM-13 [4]): 1.5 µM
EC50 (MOLM-13 [5]): 1.4 µM
selectivity ratio [8]: > 15
selectivity ratio [9]: > 15

Compound: Cc1cc2c(cc1C)[n+]([O-])c1c(OC(=O)N3CCN(C)CC3)cccc1[n+]2[O-]
EC50 (NRK [1]): 13 µM
EC50 (NRK [2]): 12 µM
EC50 (H9c2 [3]): 9.4 µM
EC50 (MOLM-13 [4]): 0.63 µM
EC50 (MOLM-13 [5]): 0.54 µM

Compound: CN1CCN(C(=O)Oc2cccc3c2[n+]([O-])c2cc4ccccc4cc2[n+]3[O-])CC1
EC50 (NRK [1]): 7.5 µM
EC50 (NRK [2]): 2 µM
EC50 (H9c2 [3]): 2.3 µM
EC50 (MOLM-13 [4]): 2.8 µM
EC50 (MOLM-13 [5]): 1.8 µM

Compound: CN1CCN(C(=O)Oc2cccc3c2[n+]([O-])c2cc(Br)c(Br)cc2[n+]3[O-])CC1
EC50 (NRK [1]): 7.6 µM
EC50 (NRK [2]): 6.2 µM
EC50 (H9c2 [3]): 2.2 µM
EC50 (MOLM-13 [4]): 0.41 µM
EC50 (MOLM-13 [5]): 0.23 µM

Compound: [O-][n+]1c2ccccc2[n+]([O-])c2c(O)cccc21
EC50 (NRK [1]): > 100 µM
EC50 (NRK [2]): 79 µM
EC50 (H9c2 [3]): > 100 µM
EC50 (MOLM-13 [4]): 11 µM
EC50 (MOLM-13 [5]): 12 µM

Compound: O=C(Oc1cccc2c1[n+]([O-])c1cccc(O)c1[n+]2[O-])N1CCCC1
EC50 (NRK [1]): 15 µM
EC50 (NRK [2]): 9.6 µM
EC50 (H9c2 [3]): 12 µM
EC50 (MOLM-13 [4]): 0.86 µM
EC50 (MOLM-13 [5]): 0.79 µM
selectivity ratio [8]: > 15
selectivity ratio [9]: > 15

Compound: COc1cccc2c1[n+]([O-])c1cccc(OC(=O)N(C)C)c1[n+]2[O-]
EC50 (NRK [1]): 29 µM
EC50 (NRK [2]): 22 µM
EC50 (H9c2 [3]): 35 µM
EC50 (MOLM-13 [4]): 1.9 µM
EC50 (MOLM-13 [5]): 1.7 µM
selectivity ratio [8]: > 15
selectivity ratio [9]: > 15

Compound: CC(C)(C)C(=O)Oc1cccc2c1[n+]([O-])c1cccc(OC(=O)C(C)(C)C)c1[n+]2[O-]
EC50 (H9c2 [3]): > 25 µM
EC50 (MOLM-13 [4]): 11 µM
EC50 (MOLM-13 [5]): 8.9 µM

Compound: CCOC(=O)COc1cccc2c1[n+]([O-])c1ccccc1[n+]2[O-]
EC50 (NRK [1]): 25 µM
EC50 (NRK [2]): 26 µM
EC50 (H9c2 [3]): 20 µM
EC50 (MOLM-13 [4]): 1.5 µM
EC50 (MOLM-13 [5]): 1.7 µM

solubility [10]: Insoluble
Compound: [O-][n+]1c2cc3ccccc3cc2[n+]([O-])c2c(O)cccc21
EC50 (MOLM-13 [5]): > 10 µM

Compound: CCOC(=O)COc1cccc2c1[n+]([O-])c1cc(Cl)c(Cl)cc1[n+]2[O-]
EC50 (NRK [1]): 4.7 µM
EC50 (NRK [2]): 3.1 µM
EC50 (H9c2 [3]): 1.3 µM
EC50 (MOLM-13 [4]): 0.41 µM
EC50 (MOLM-13 [5]): 0.38 µM

Compound: CN(C)C(=O)Oc1cccc2c1[n+]([O-])c1cccc(O)c1[n+]2[O-]
EC50 (NRK [1]): 62 µM
EC50 (NRK [2]): 49 µM
EC50 (H9c2 [3]): 64 µM
EC50 (MOLM-13 [4]): 0.89 µM
EC50 (MOLM-13 [5]): 0.7 µM
selectivity ratio [8]: > 15
selectivity ratio [9]: > 15

Compound: COc1cccc2c1[n+]([O-])c1cccc(OC(=O)N3CCN(C)CC3)c1[n+]2[O-]
EC50 (NRK [1]): 39 µM
EC50 (NRK [2]): 26 µM
EC50 (H9c2 [3]): 26 µM
EC50 (MOLM-13 [4]): 1 µM
EC50 (MOLM-13 [5]): 0.98 µM
selectivity ratio [8]: > 15
selectivity ratio [9]: > 15

Compound: CCCCC(=O)Oc1cccc2c1[n+]([O-])c1cccc(OC(=O)CCCC)c1[n+]2[O-]
EC50 (H9c2 [3]): > 25 µM
EC50 (MOLM-13 [4]): 36 µM
EC50 (MOLM-13 [5]): 22 µM

Compound: CCN(CC)C(=O)COc1cccc2c1[n+]([O-])c1ccccc1[n+]2[O-]
EC50 (NRK [1]): 16 µM
EC50 (NRK [2]): 13 µM
EC50 (H9c2 [3]): 23 µM
EC50 (MOLM-13 [4]): 1.2 µM
EC50 (MOLM-13 [5]): 1.4 µM

Compound: Cc1c(C)[n+]([O-])c2c(O)cccc2[n+]1[O-]
EC50 (MOLM-13 [4]): > 200 µM
EC50 (MOLM-13 [5]): > 200 µM

Compound: CCOC(=O)Oc1cccc2c1[n+]([O-])c1cccc(O)c1[n+]2[O-]
EC50 (H9c2 [3]): > 100 µM
EC50 (MOLM-13 [4]): 50 µM
EC50 (MOLM-13 [5]): 66 µM

Compound: CN(C)C(=O)Oc1cccc2c1[n+]([O-])c1ccccc1[n+]2[O-]
EC50 (NRK [1]): 25 µM
EC50 (NRK [2]): 19 µM
EC50 (H9c2 [3]): 16 µM
EC50 (MOLM-13 [4]): 1.3 µM
EC50 (MOLM-13 [5]): 2.1 µM

Compound: O=C(Oc1cccc2c1[n+]([O-])c1ccccc1[n+]2[O-])N1CCCC1
EC50 (NRK [1]): 21 µM
EC50 (NRK [2]): 18 µM
EC50 (H9c2 [3]): 13 µM
EC50 (MOLM-13 [4]): 1.5 µM
EC50 (MOLM-13 [5]): 1.2 µM

Compound: CCOC(=O)COc1cccc2c1[n+]([O-])c1cc(C)c(C)cc1[n+]2[O-]
EC50 (NRK [1]): > 100 µM
EC50 (H9c2 [3]): > 100 µM
EC50 (MOLM-13 [4]): 8.3 µM
EC50 (MOLM-13 [5]): 6.3 µM

Compound: Cc1c(C)[n+]([O-])c2c(OC(=O)N3CCN(C)CC3)cccc2[n+]1[O-]
EC50 (MOLM-13 [4]): > 200 µM
EC50 (MOLM-13 [5]): > 200 µM

Compound: Cc1c(C)[n+]([O-])c2c(OC(=O)N3CCOCC3)cccc2[n+]1[O-]
EC50 (MOLM-13 [4]): > 200 µM
EC50 (MOLM-13 [5]): > 200 µM

Compound: COc1cccc2c1[n+]([O-])c1cccc(OC(=O)N3CCCC3)c1[n+]2[O-]
EC50 (NRK [1]): 35 µM
EC50 (NRK [2]): 32 µM
EC50 (H9c2 [3]): 35 µM
EC50 (MOLM-13 [4]): 2 µM
EC50 (MOLM-13 [5]): 1.8 µM
selectivity ratio [8]: > 15
selectivity ratio [9]: > 15

Compound: CN1CCN(C(=O)Oc2cccc3c2[n+]([O-])c2ccccc2[n+]3[O-])CC1
EC50 (NRK [1]): 37 µM
EC50 (NRK [2]): 25 µM
EC50 (H9c2 [3]): 36 µM
EC50 (MOLM-13 [4]): 1.5 µM
EC50 (MOLM-13 [5]): 1.9 µM

Compound: Nc1n[n+]([O-])c2ccccc2[n+]1[O-] [TIRAPAZAMINE]
EC50 (NRK [11]): > 100 µM
EC50 (H9c2 [12]): > 100 µM
EC50 (NRK [13]): 35 µM
